Results published in patent US9155729B2, “Thiazolidinedione analogues” (Metabolic Solutions Development Company, LLC, priority 2006, dated 2015).
Marks after values point to notes of the source that are not given here.

What was measured:
PPARγ = biological target: T1, PPARγ (Homo sapiens, UniProt P37231); test: Commercial PPARγ binding assay (Invitrogen, PPAR-LBD/Fluormone PPAR Green complex); details: for PPARγ binding signal (fluorescence polarization, Fluormone PPAR Green displacement): mean of three experiments; for Binding to PPARγ (in words): referring to FIG. 1 and Table B
T1 construct: purchased Invitrogen Corporation, Carlsbad, Calif
T1 sequence (P37231 238-503 limits assumed): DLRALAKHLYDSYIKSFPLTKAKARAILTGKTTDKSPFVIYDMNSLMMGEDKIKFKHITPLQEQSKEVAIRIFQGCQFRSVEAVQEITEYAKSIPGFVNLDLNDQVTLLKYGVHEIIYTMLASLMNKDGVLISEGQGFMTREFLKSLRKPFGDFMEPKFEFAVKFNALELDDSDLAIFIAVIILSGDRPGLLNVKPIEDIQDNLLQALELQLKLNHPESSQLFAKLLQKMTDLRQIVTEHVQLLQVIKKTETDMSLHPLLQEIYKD
Procedure: The ability of several exemplary compounds of the present invention, shown in Table A, to bind to PPARγ was measured using a commercial binding assay (Invitrogen Corporation, Carlsbad, Calif.) that measures the test compounds ability to bind with PPAR-LBD/Fluormone PPAR Green complex. These assays were performed on three occasions with each assay using four separate wells (quadruplicate) at each concentration of tested compound. The data are mean and SEM of the values obtained from the three experiments. […] Compounds were added at the concentrations shown, which range from 0.1-100 micromolar.

Diabetic KKAy mice [1] = test: Glucose, insulin and triglyceride in diabetic KKAy mice, 4 days oral dosing; assay type: in vivo; details: for Glucose / Insulin / Triglycerides: 93 mg/kg orally for 4 days, fasted, blood approx. 18 hours after last dose, mean and SEM; for Effectiveness at lowering glucose, insulin and triglyceride levels / antidiabetic activity (in words): Table C
Procedure: The insulin sensitizing and antidiabetic pharmacology are measured in the KKA^Y mice as previously reported [Hofmann, C., Lomez, K., and Colca, J. R. (1991). Glucose transport deficiency corrected by treatment with the oral anti-hyperglycemic agent Pioglitazone. Endocrinology, 129:1915-1925.]. Compounds are formulated in 1% sodium carboxy methylcellulose, and 0.01% tween 20 and dosed daily by oral gavage.
Compounds were formulated by suspension and orally dosed to KKAy mice at 93 mg/kg for 4 days. The compounds were first dissolved in DMSO and then placed into aqueous suspension containing 7-10% DMSO, 1% sodium methylcarboxycellulose, and 0.01% Tween 20. On the fifth day, the mice were fasted and blood samples were obtained approximately 18 hours after the last dose. The parameters were measured by standard assay methods. Data are mean and SEM N=6-12 mice.

Diabetic KKAy mice [2] = test: Glucose and insulin in diabetic KKAy mice dosed 7 days with compound 1 or rosiglitazone; assay type: in vivo; details: 20 mg rosiglitazone or 100 mg/kg compound 1, fasting, 8th day, mean, 8 mice/group
Procedure: KKAy mice were dosed for 7 days with 20 mg rosigltiazone (positive control) and 100 mg/kg of compound 1 in suspension (1% sodium methyl carboxymethyl cellulose/0.01% Tween 80). On the 8th day, fasting, glucose, and insulin were measured, see Table D. The liver was isolated was used to measure hepatic mRNA for aP2, a biomarker for PPARγ activation in vivo. […] Data are mean and (SEM) for 8 mice/group.

SMILES	PPARγ binding signal (fluorescence polarization, Fluormone PPAR Green displacement) (PPARγ; 1 μM compound)	PPARγ binding signal (fluorescence polarization, Fluormone PPAR Green displacement) (PPARγ; 3 μM compound)	PPARγ binding signal (fluorescence polarization, Fluormone PPAR Green displacement) (PPARγ; 10 μM compound)	PPARγ binding signal (fluorescence polarization, Fluormone PPAR Green displacement) (PPARγ; 50 μM compound)	PPARγ binding signal (fluorescence polarization, Fluormone PPAR Green displacement) (PPARγ; 100 μM compound)	PPARγ binding signal (fluorescence polarization, Fluormone PPAR Green displacement) (PPARγ; .1 μM compound)	PPARγ binding signal (fluorescence polarization, Fluormone PPAR Green displacement) (PPARγ; .3 μM compound)	Binding to PPARγ (in words) (PPARγ)	Glucose (Diabetic KKAy mice [1]; N=6-12)	Insulin (Diabetic KKAy mice [1]; N=6-12)	Triglycerides (Diabetic KKAy mice [1]; N=6-12)	Glucose (Diabetic KKAy mice [1]; N=6-12, 93 mg/kg) [mg/dL]	Insulin (Diabetic KKAy mice [1]; N=6-12, 93 mg/kg) [ng/mL]	Triglycerides (Diabetic KKAy mice [1]; N=6-12, 93 mg/kg) [mg/dL]	Effectiveness at lowering glucose, insulin and triglyceride levels / antidiabetic activity (in words) (Diabetic KKAy mice [1])	Glucose (Diabetic KKAy mice [2]) [mg/dL]	Insulin (Diabetic KKAy mice [2]) [ng/mL]
CCc1ccc(C(=CCO)COc2ccc(CC3SC(=O)NC3=O)cc2)nc1 (stereo not drawn) [Compound 13]	229	230	204	148	108	244	243										
CCc1ccc(C(=CC(=O)OC)COc2ccc(CC3SC(=O)NC3=O)cc2)nc1 (stereo not drawn) [Compound 11]	232	229	165	128	78	230	227		662 ± 40 mg/dL	18.9 ± 1.6 ng/mL	476 ± 106 mg/dL						
CCc1ccc(C(COc2ccc(CC3SC(=O)NC3=O)cc2)CC(=O)OC)nc1 (stereo not drawn) [Compound 12]	198	155	112	80	85	243	222										
CCc1ccc([C@@H](O)COc2ccc(CC3SC(=O)NC3=O)cc2)nc1 (stereo partly drawn) [Compound 2]	238	236	223	162	136	231	233	particularly poor binders	428 +/− 17* mg/dl	5.7 +/− 1.6* ng/ml	187 +/− 29* mg/dl				equivalent antidiabetic activity		
CCc1ccc([C@H](O)COc2ccc(CC3SC(=O)NC3=O)cc2)nc1 (stereo partly drawn) [Compound 3]	203	185	134	88	77	226	221		388 +/− 38* mg/dl	7.2 +/− 1.9* ng/ml	148 +/− 23* mg/dl				equivalent antidiabetic activity		
CN(CCOc1ccc(CC2SC(=O)NC2=O)cc1)c1ccccn1 (stereo not drawn) [Rosiglitazone, reference compound]																320	3.4

Now from value to compound, other results behind:

PPARγ binding signal (fluorescence polarization, Fluormone PPAR Green displacement) (PPARγ; 1 μM compound)	PPARγ binding signal (fluorescence polarization, Fluormone PPAR Green displacement) (PPARγ; 3 μM compound)	PPARγ binding signal (fluorescence polarization, Fluormone PPAR Green displacement) (PPARγ; 10 μM compound)	PPARγ binding signal (fluorescence polarization, Fluormone PPAR Green displacement) (PPARγ; 50 μM compound)	PPARγ binding signal (fluorescence polarization, Fluormone PPAR Green displacement) (PPARγ; 100 μM compound)	PPARγ binding signal (fluorescence polarization, Fluormone PPAR Green displacement) (PPARγ; .1 μM compound)	PPARγ binding signal (fluorescence polarization, Fluormone PPAR Green displacement) (PPARγ; .3 μM compound)	Binding to PPARγ (in words) (PPARγ)	SMILES	Glucose (Diabetic KKAy mice [1]; N=6-12)	Insulin (Diabetic KKAy mice [1]; N=6-12)	Triglycerides (Diabetic KKAy mice [1]; N=6-12)	Glucose (Diabetic KKAy mice [1]; N=6-12, 93 mg/kg) [mg/dL]	Insulin (Diabetic KKAy mice [1]; N=6-12, 93 mg/kg) [ng/mL]	Triglycerides (Diabetic KKAy mice [1]; N=6-12, 93 mg/kg) [mg/dL]	Effectiveness at lowering glucose, insulin and triglyceride levels / antidiabetic activity (in words) (Diabetic KKAy mice [1])	Glucose (Diabetic KKAy mice [2]) [mg/dL]	Insulin (Diabetic KKAy mice [2]) [ng/mL]
239	241	233	199	186	237	243		CCc1ccc([C@@H](O)COc2ccc(CC3(C)SC(=O)NC3=O)cc2)nc1 (stereo partly drawn) [Compound 8]	756 ± 31 mg/dL	12.8 ± 2.6 ng/mL	465 ± 64 mg/dL						
248	237	210	144	105	249	246	better PPARγ binding compounds	CCc1ccc(CCOc2ccc(CC3(C)SC(=O)NC3=O)cc2)nc1 (single isomer, unassigned) [Compound 7]				631 ± 7	16.3 ± 1.2	374 ± 15	not as effective as compounds 1 and 2		
234	224	200	122	91	236	230		CCc1ccc(CCOc2ccc(CC3(C)SC(=O)NC3=O)cc2)nc1 (single isomer, unassigned) [Compound 4]									
228	226	212	132	106	235	230		CCc1ccc(C(O)COc2ccc(CC3(C)SC(=O)NC3=O)cc2)nc1 (stereo not drawn) [Compound 5]									
233	223	198	126	99	246	246	better PPARγ binding compounds	CCc1ccc(CCOc2ccc(CC3(C)SC(=O)NC3=O)cc2)nc1 (single isomer, unassigned) [Compound 6]				694 ± 63	11.1 ± 1.6	298 ± 49	not as effective as compounds 1 and 2		
239	233	234	189	164	237	237		CCc1ccc([C@H](O)COc2ccc(CC3(C)SC(=O)NC3=O)cc2)nc1 (stereo partly drawn) [Compound 9]	740 ± 37 mg/dL	14.8 ± 2.5 ng/mL	354 ± 43 mg/dL						
240	234	219	126	93	245	239		CCc1ccc(C(=O)COc2ccc(CC3(C)SC(=O)NC3=O)cc2)nc1 (stereo not drawn) [Compound 10]									
